Measurements: the Kinase Knowledgebase extract (Sharma et al. 2016)

Target: CDK2 (human) (UniProt P24941)
Test: Enzyme Assay

| Compound | IC50 [nM] |
| --- | --- |
| CC(C)(C)c1cnc(CSc2cnc(NC(=O)Cc3ccc(OCCCC(=O)NO)cc3)s2)o1 | ≤ 100 |
| CC(C)(C)c1cnc(CSc2cnc(NC(=O)C3CCN(CCCCC(=O)NO)CC3)s2)o1 | ≤ 100 |
| CC(C)(C)c1cnc(CSc2cnc(NC(=O)C3CCN(CCCCCCC(=O)NO)CC3)s2)o1 | ≤ 100 |
| CC(C)(C)c1cnc(CSc2cnc(NC(=O)Cc3ccc(OCCCCC(=O)NO)cc3)s2)o1 | ≤ 100 |
| CC(C)(C)c1cnc(CSc2cnc(NC(=O)C3CCN(CCCCCC(=O)NO)CC3)s2)o1 | ≤ 100 |
| CC(C)(C)c1cnc(CSc2cnc(NC(=O)C3CCN(CCCC(=O)NO)CC3)s2)o1 | ≤ 100 |
| CC(C)(C)c1cnc(CSc2cnc(NC(=O)c3ccc(OCCCCCCC(=O)NO)cc3)s2)o1 | ≤ 100 |
| CC(C)(C)c1cnc(CSc2cnc(NC(=O)CCCNCCCCCCC(=O)NO)s2)o1 | ≤ 100 |
| CC(C)(C)c1cnc(CSc2cnc(NC(=O)Cc3ccc(OCCC(=O)NO)cc3)s2)o1 | ≤ 100 |
| CC(C)(C)c1cnc(CSc2cnc(NC(=O)CCCNCCC(=O)NO)s2)o1 | ≤ 100 |
| CC(C)(C)c1cnc(CSc2cnc(NC(=O)CCCC(=O)NO)s2)o1 | ≤ 100 |
| CC(C)(C)c1cnc(CSc2cnc(NC(=O)Oc3ccc(OCCCC(=O)NO)cc3)s2)o1 | ≤ 100 |
| CC(C)(C)c1cnc(CSc2cnc(NC(=O)c3ccc(/C=C/C(=O)NO)cc3)s2)o1 | ≤ 100 |
| CNC(=O)CCCCCOc1ccc(CC(=O)Nc2ncc(SCc3ncc(C(C)(C)C)o3)s2)cc1 | ≤ 100 |
| CC(C)(C)c1cnc(CSc2cnc(NC(=O)CCCCC(=O)NO)s2)o1 | ≤ 100 |
| CC(C)(C)c1cnc(CSc2cnc(NC(=O)C3CCN(c4ncc(C(=O)NO)cn4)CC3)s2)o1 | ≤ 100 |
| CC(C)(C)c1cnc(CSc2cnc(NC(=O)c3ccc(OCCCC(=O)NO)cc3)s2)o1 | ≤ 100 |
| CC(C)(C)c1cnc(CSc2cnc(NC(=O)c3ccc(OCCCCCC(=O)NO)cc3)s2)o1 | ≤ 100 |
| CC(C)(C)c1cnc(CSc2cnc(NC(=O)Nc3ccc(OCCCC(=O)NO)cc3)s2)o1 | ≤ 100 |
| CC(C)c1cnc(CSc2cnc(NC(=O)Cc3ccc(OCCCCCCC(=O)NO)cc3)s2)o1 | ≤ 100 |
| CC(C)(C)c1cnc(CSc2cnc(NC(=O)c3ccc(OCCCCC(=O)NO)cc3)s2)o1 | ≤ 100 |
| CC(C)(C)c1cnc(CSc2cnc(NC(=O)CCCCCCC(=O)NO)s2)o1 | ≤ 100 |
| CC(Sc1cnc(NC(=O)Cc2ccc(OCCCC(=O)NO)cc2)s1)c1ncc(C(C)(C)C)o1 (configuration not stated) | ≤ 100 |
| CC(C)(C)c1cnc(CSc2cnc(NC(=O)c3cccc(/C=C/C(=O)NO)c3)s2)o1 | ≤ 100 |
| CC(C)(C)c1cnc(CSc2cnc(NC(=O)C(C)(C)c3ccc(OCCCC(=O)NO)cc3)s2)o1 | ≤ 100 |
| CC(C(=O)Nc1ncc(SCc2ncc(C(C)(C)C)o2)s1)c1ccc(OCCCC(=O)NO)cc1 (configuration not stated) | ≤ 100 |
| CC(C)(C)c1cnc(CSc2cnc(NCC3CCN(c4ncc(C(=O)NO)cn4)CC3)s2)o1 | ≤ 100 |
